Data published in paper PMC10597649, “Effect of Astragali radix extract on pharmacokinetic behavior of dapagliflozin in healthy and type 2 diabetic rats” (Frontiers in Pharmacology, 2023).
Where two headings read alike, the source gives them in different places.

How the values were obtained:
P-gp = conditions: ref Obermeier et al., 2010; cited from earlier work
[1] = for Accuracy (RE, %): rat plasma, n = 6
Experimental: Stability of DAPA in rat plasma was evaluated by analyzing six replicates of QC samples at low and high concentrations under different conditions. Short-term stability was investigated by keeping the samples at room temperature (25°C) for 12 h and autosampler (4°C) for 24 h, respectively. Freeze-thaw stability was investigated by three freeze-thawing cycles, i.e., the samples were frozen for 7 d at -80°C and thawed 3 h at room temperature for each cycle. Long-term stability was investigated by keeping the samples at -80°C for 1 month.

in vivo = conditions: for Cmax / MRT last / half-life / Tmax: male, Sprague-Dawley, rat, plasma, po; for MRT last: MRT(0-t)
Experimental: An AB SCIEX (USA) Exion LC system consisting of vacuum degasser, binary pump and auto-sampler were used for solvent and sampler delivery. Chromatographic separation was achieved using Agilent Poroshell 120 EC-C18 column (2.1 × 100 mm, 1.9 μm). The column temperature was maintained at 40°C. The mobile phase consisted of 0.1% formic acid-1mM ammonium formate-water solution (A) and acetonitrile (B) was used, and the flow rate was set at 0.3 mL/min. The gradient elution program was as follows: 0–2.0 min (90%–65% A), 2.0–6.0 min (65%–60% A), 6.0–7.0 min (60%–90% A), 7–10 min (90% A). The processed samples were stored at 4°C in an auto sampler. The sample injection volume was 2 μL. An AB SCIEX (USA) Q-TRAP 6500 model mass spectrometer (MS) equipped with a turbolon spray ionization (ESI) source was used for mass analysis and detection. DAPA and the internal standard (IS, i.e., empagliflozin) were analyzed in positive ion mode with multiple reaction monitoring (MRM) pairs: m/z 426.1–355.0 for DAPA and m/z 468.1–355.1 for IS. The ion spray voltage was set at 5500V. The curtain gas, ion source gas 1 and ion source gas 2 were set at 35, 60 and 50 psi, respectively. The source temperature was kept at 200°C. The collision gas was set at low flow rate. The declustering potential and collision energy were 35 V and 19 V for DAPA, 40 V and 21 V for IS.
The rat plasma samples (50 μL), IS working solution (5 μL), 50% methanol (5 μL), and MTBE (500 μL) were mixed, then were vortexed for 3 min and centrifuged for 5 min (4000 rpm, 4°C). The organic phase was transferred to a new centrifuged tube and evaporated to dryness with a stream of nitrogen at room temperature. The dried samples were redissolved with 100 µL of 50% methanol and vortexed for 1 min, then 2 µL of supernatant fluid was injected into the LC-MS/MS instrument for analysis.
Male Sprague Dawley (SD) rats (180–220g, 6–8 weeks old) were provided by Animal Experimentation Centre, School of Pharmacy, Fudan University (Shanghai, China). All the experimental procedures for this study were reviewed and approved by Experimental Animal Ethics Committee of School of Pharmacy, Fudan University, which was in strict compliance with the International Code for the Care and Use of Experimental Animals (approval number:2020-04-LY-MG-01). All the animals were housed under standard laboratory conditions of temperature (25°C ± 2°C), constant humidity (55 ± 5%), and light (12 h dark/light cycle), with freely available food and purified water. After 1 week of acclimation, 12 rats were randomly selected as the healthy group that was fed with the ordinary feed. The remaining 20 rats were modeled for T2DM that were fed with high-fat diet (HFD). After 4 weeks, the modeled rats fed HFD were fasted overnight, and measured fasting blood glucose (FBG), then intraperitoneally injected with STZ (35 mg/kg, inject once). One week later, the FBG was measured again, and only those rats whose FBG were over 16.7 mmol/L were considered to be T2DM rats.
Dose of 1 mg/kg for DAPA used in the study was recommended based on the package insert of DAPA and dose conversion per unit weight from humans to rats (6.3 times). ARE was administered to the rats with the dose of 300 mg/kg, which was selected by converting the recommended doses of AR for adults in practice to the doses of ARE for the rats, according to the Pharmacopoeia of the People’s Republic of China. The healthy rats and T2DM rats were randomly assigned to two groups (n = 6 each group). The CD group was the healthy rats intragastrically administered with DAPA in a single dose (1 mg/kg). The CDA group was the healthy rats intragastrically administered with ARE (300 mg/kg) once a day for seven consecutive days, and intragastrically administered with DAPA (1 mg/kg) at the same time on the seventh day. The MD group was the T2DM rats intragastrically administered with DAPA in a single dose (1 mg/kg).

[2] = ref Kasichayanula et al., 2013, cited from earlier work
[3] = ref Kasichayanula et al., 2011, cited from earlier work
[4] = MD group: T2DM rats, DAPA alone, single intragastric dose 1.05 mg/kg, n = 6, mean ± SD
[5] = MDA group compared to MD group (T2DM rats, with ARE versus DAPA alone)
[6] = MDA group: T2DM rats, ARE 300 mg/kg intragastric once a day for 7 days + DAPA single dose 1.05 mg/kg on day 7, n = 6, mean ± SD
[7] = MDA-H group: T2DM rats, ARE 900 mg/kg once a day for 7 days + DAPA single dose 1.05 mg/kg on day 7, n=6, mean ± SD
[8] = MDA-L group: T2DM rats, ARE 300 mg/kg once a day for 7 days + DAPA single dose 1.05 mg/kg on day 7, n=6, mean ± SD
[9] = T2DM rats compared to healthy rats, DAPA alone

CCOc1ccc(Cc2cc([C@@H]3O[C@H](CO)[C@@H](O)[C@H](O)[C@H]3O)ccc2Cl)cc1 [DAPA, Dapagliflozin]
P-gp substrate (P-gp): substrate of P-gp | Accuracy (RE, %) ([1]; freeze thaw (3 cycles, 7 d at -80°C, thawed 3 h at room temperature), 33.5 ng/mL): -4.72% | Accuracy (RE, %) ([1]; freeze thaw (3 cycles, 7 d at -80°C, thawed 3 h at room temperature), 975 ng/mL): -3.71% | Accuracy (RE, %) ([1]; long term (-80°C, 30d), 33.5 ng/mL): -2.96% | Accuracy (RE, %) ([1]; long term (-80°C, 30d), 975 ng/mL): -2.97% | Accuracy (RE, %) ([1]; refrigerator (4°C, 24 h), 33.5 ng/mL): -1.37% | Accuracy (RE, %) ([1]; refrigerator (4°C, 24 h), 975 ng/mL): -2.63% | Accuracy (RE, %) ([1]; room temperature (25°C, 12 h), 33.5 ng/mL): -1.19% | Accuracy (RE, %) ([1]; room temperature (25°C, 12 h), 975 ng/mL): -2.87% | Stability in the rat plasma ([1]; room temperature (25°C) for 12 h, 4°C for 24 h, -80°C for 30 days, three freeze-thaw cycles): stable | AUC(0-inf) (in vivo; [4]): 4505.74±148.96 h*(ng/mL) | AUC(0-t) (in vivo; [4]): 4324.28±185.47 h*(ng/mL) | CL (in vivo; [4]): 233.25±7.80 (mL/h)/kg | V (in vivo; [4]): 1.49898 ± 0.30743 L/kg | decrease of C max (in vivo; [5]): 31.99% | decrease of t max (in vivo; [5]): 62.50% | increase of V (in vivo; [5]): 2.06 fold | increase of t 1/2 (in vivo; [5]): 2.18 fold | AUC(0-inf) (in vivo; [6]): 4865.13±1307.11 h*(ng/mL) | AUC(0-t) (in vivo; [6]): 4051.27±952.61 h*(ng/mL) | CL (in vivo; [6]): 228.25±56.10 (mL/h)/kg | V (in vivo; [6]): 3.09173 ± 1.18358 L/kg | AUC(0-inf) (in vivo; [7]): 4464.67±408.26 h*(ng/mL) | AUC(0-t) (in vivo; [7]): 4070.47±408.83 h*(ng/mL) | CL (in vivo; [7]): 237.88±21.93 (mL/h)/kg | V (in vivo; [7]): 2.55248 ± 0.48245 L/kg | AUC(0-inf) (in vivo; [8]): 4560.99±768.53 h*(ng/mL) | AUC(0-t) (in vivo; [8]): 3991.37±640.65 h*(ng/mL) | CL (in vivo; [8]): 235.15±35.35 (mL/h)/kg | V (in vivo; [8]): 2.91586 ± 0.51024 L/kg | decrease of t max (in vivo; [9]): 29.45% | increase of C max (in vivo; [9]): 62.94% | difference of AUC(0-t), AUC(0-inf), CL, MRT (in vivo; between the MD group and the MDA group (T2DM rats)): no significant difference | changes for t 1/2, V, AUC, CL and MRT (in vivo; healthy rats versus T2DM rats, DAPA alone): no significant changes | Cmax (in vivo; 1.05 mg/kg, C max, MD group: T2DM rats, DAPA alone, single intragastric dose 1.05 mg/kg, n = 6, mean ± SD): 627 ± 68.6 ng/mL | Cmax (in vivo; 1.05 mg/kg, Cmax, MDA-H group: T2DM rats, ARE 900 mg/kg once a day for 7 days + DAPA single dose 1.05 mg/kg on day 7, n=6, mean ± SD): 457 ± 50.4 ng/mL | Cmax (in vivo; 1.05 mg/kg, Cmax, MDA-L group: T2DM rats, ARE 300 mg/kg once a day for 7 days + DAPA single dose 1.05 mg/kg on day 7, n=6, mean ± SD): 433 ± 62.6 ng/mL | MRT last (in vivo; 1.05 mg/kg, MD group: T2DM rats, DAPA alone, single intragastric dose 1.05 mg/kg, n = 6, mean ± SD): 7.57 ± 0.32 h | MRT last (in vivo; 1.05 mg/kg, MDA-H group: T2DM rats, ARE 900 mg/kg once a day for 7 days + DAPA single dose 1.05 mg/kg on day 7, n=6, mean ± SD): 7.23 ± 0.37 h | MRT last (in vivo; 1.05 mg/kg, MDA-L group: T2DM rats, ARE 300 mg/kg once a day for 7 days + DAPA single dose 1.05 mg/kg on day 7, n=6, mean ± SD): 7.39 ± 0.34 h | half-life (in vivo; 1.05 mg/kg, t 1/2, MD group: T2DM rats, DAPA alone, single intragastric dose 1.05 mg/kg, n = 6, mean ± SD): 4.45 ± 0.9 h | half-life (in vivo; 1.05 mg/kg, t1/2, MDA-H group: T2DM rats, ARE 900 mg/kg once a day for 7 days + DAPA single dose 1.05 mg/kg on day 7, n=6, mean ± SD): 7.44 ± 0.86 h | half-life (in vivo; 1.05 mg/kg, t1/2, MDA-L group: T2DM rats, ARE 300 mg/kg once a day for 7 days + DAPA single dose 1.05 mg/kg on day 7, n=6, mean ± SD): 8.64 ± 1.08 h | Tmax (in vivo; 1.05 mg/kg, t max, MD group: T2DM rats, DAPA alone, single intragastric dose 1.05 mg/kg, n = 6, mean ± SD): 4 h | Tmax (in vivo; 1.05 mg/kg, tmax, MDA-H group: T2DM rats, ARE 900 mg/kg once a day for 7 days + DAPA single dose 1.05 mg/kg on day 7, n=6, mean ± SD): 1.45 ± 0.61 h | Tmax (in vivo; 1.05 mg/kg, tmax, MDA-L group: T2DM rats, ARE 300 mg/kg once a day for 7 days + DAPA single dose 1.05 mg/kg on day 7, n=6, mean ± SD): 1.25 ± 0.82 h | Cmax (in vivo; C max, MDA group: T2DM rats, ARE 300 mg/kg intragastric once a day for 7 days + DAPA single dose 1.05 mg/kg on day 7, n = 6, mean ± SD): 427 ± 58.9 ng/mL | MRT last (in vivo; [6]): 7.64 ± 0.7 h | half-life (in vivo; t 1/2, MDA group: T2DM rats, ARE 300 mg/kg intragastric once a day for 7 days + DAPA single dose 1.05 mg/kg on day 7, n = 6, mean ± SD): 9.69 ± 3.47 h | Tmax (in vivo; t max, MDA group: T2DM rats, ARE 300 mg/kg intragastric once a day for 7 days + DAPA single dose 1.05 mg/kg on day 7, n = 6, mean ± SD): 1.5 ± 0.77 h | increase of C max ([2]; T2DM patients with mild renal function damage versus T2DM patient without): 4% | increase of C max ([2]; T2DM patients with moderate renal function damage versus T2DM patient without): 6% | increase of C max ([2]; T2DM patients with severe renal function damage versus T2DM patient without): 9% | increase of C max ([3]; patients with mild liver function damage versus healthy subjects): 12% | increase of C max ([3]; patients with moderate liver function damage versus healthy subjects): 12% | increase of C max ([3]; patients with severe liver function damage versus healthy subjects): 40%
